Structures are written as SMILES. Structures can show the parent of a compound that is named as a salt.

In this test the target is T1, squalene synthetase (Rattus norvegicus, UniProt Q02769).
T1 construct: from tissue; host or cells: liver microsomes of cholestyramine-fed Sprague-Dawley rat
T1 sequence (Q02769 1-416): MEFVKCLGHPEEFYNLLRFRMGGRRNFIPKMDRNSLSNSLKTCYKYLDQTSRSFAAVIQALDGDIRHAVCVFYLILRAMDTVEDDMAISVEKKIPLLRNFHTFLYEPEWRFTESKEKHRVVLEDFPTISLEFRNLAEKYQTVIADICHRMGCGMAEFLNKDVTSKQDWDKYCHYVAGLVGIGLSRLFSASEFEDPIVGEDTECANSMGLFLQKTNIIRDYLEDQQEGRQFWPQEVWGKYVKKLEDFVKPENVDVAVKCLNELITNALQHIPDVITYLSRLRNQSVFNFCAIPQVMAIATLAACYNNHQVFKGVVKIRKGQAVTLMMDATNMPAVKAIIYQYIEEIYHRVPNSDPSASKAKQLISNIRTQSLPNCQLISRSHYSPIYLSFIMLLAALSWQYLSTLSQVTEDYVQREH
The test can be described thus: inhibitory activity against squalene synthetase with liver microsome of cholestyramine-treated rat. Particulars: liver microsome of cholestyramine-treated Sprague-Dawley rat; 10 μM 3H-FPP, pH 7.4, 37° C., 10 min. The format is biochemical. Here is the method: Determination of inhibitory activity against squalene synthetase with liver microsome of cholestyramine-treated rat
1 mM NADPH (nicotinamide adenine dinucleotide phosphate)
10 μM ^3 H-FPP (farnesylpyrophosphoric acid) (10 mCi/mmol, a product of New England Nuclea Co.)
0.1 mg/ml liver microsome of rat 37° C., 10 min.
These components were put in a spit tube as follows: […]
______________________________________
sample solution of 5-fold concentration
1 mg/ml liver microsome of rat
The obtained mixture was preincubated at 37° C. for 5 minutes. 50 μl of 100 μM ^3 H-FPP (10 mCi/mmol; NEN) was added to the resulting mixture to initiate a reaction. After 10 minutes, 1 ml of 4N NaOH was added to the mixture to stop the reaction, followed by the addition thereto of 1 ml of ethanol. The obtained mixture was incubated at 80° C. for 12 hours, cooled with ice and extracted with petroleum ether twice. The petroleum ether layers were separated from the aqueous layer and evaporated to dryness with nitrogen gas. The residue was dissolved in 25 μl of chloroform containing squalene, famesol and cholesterol as markers. The obtained solution was applied to TLC (Empore; 412001-1) and developed under the following conditions:
benzene/isopropyl ether (1: 1), 6 min.
The band of squalene was cut from the plate and examined for radioactivity with a liquid scintillation counter to determine the inhibitory ratio.
(2) Preparation of Liver Microsome of Rat
A Sprague-Dawley rat was fed with food containing 2% of cholestyramine (Dowex 1-X2) for at least 5 days to enhance the cholesterol-biosynthesizing activity of the rat. At midnight (0:00), the liver was extirpated from the rat and washed with a 1.154 (w/v) ice-cooled KCl solution to remove the blood from the liver. The resulting liver was cut into small pieces with scissors, homogenized with a Teflon homogenizer of the loose fitting type and subjected to centrifugation (700 g, 10 min). The obtained supernatant was further subjected to centrifugation (15,000 g, 20 min) and the obtained supernatant was furthermore subjected to centrifugation (105,000 g 60 min) to be separated into a microsome fraction and a supernatant. This microsome fraction was washed with a 0.1M potassium phosphate buffer (pH: 7.4) once and suspended in a 0.1M potassium phosphate buffer in the liver concentration of 3 g/ml. The obtained suspension was examined for protein concentration by the Lowry method and the protein concentration was adjusted to 20 mg/ml.
IC50 values of the squalene synthetase inhibiting activity are given in Tables 1 to 5, wherein Me represents a methyl group and Et an ethyl group.
In turn, `CC(C)=CCC/C(C)=C/CC/C(C)=C/CC(P(=O)(O)O)P(=O)(O)O` [Example 13, (E,E)-4,8,12-Trimethyl-37,11-tridecatrienyl-1,1-bis(phosphonic acid disodium salt)] showed an IC50 of 3 nM.
`CC(C)=CCC/C(C)=C/CC/C(C)=C/CCC(P(=O)(O)O)P(=O)(O)O` [Example 14, (E,E)-5,9,13-Trimethyl-4,8,12-tetradecatrienyl-1,1-bis(phosphonic acid disodium salt)] returned an IC50 of 5 nM.
The value for `CC(C)=CCC/C(C)=C/CC(P(=O)(O)O)P(=O)(O)O` [Example 15, (E)-4,8-Dimethyl3,7-nonadienyl-1,1-bis(phosphonic acid disodium salt)] was 300 nM.
In the case of `CC(C)=CCC/C(C)=C/CC/C(C)=C/CC/C(C)=C/CC(P(=O)(O)O)P(=O)(O)O` [Example 16, (E,E,E)-4,8,12,16-Tetramethyl-3,7,11,15-heptadecatetraenyl-1,1-bis(phosphonic acid disodium salt)] it was 8 nM; in that of `CC(C)=CCC/C(C)=C/CC/C(C)=C/CN(C)CCCC(P(=O)(O)O)P(=O)(O)O` [Example 17, 4-{(E,E)-N-Methyl-3,7,11-trimethyl-2,6,10-dodecatrienylamino}butyl-1,1-bis(phosphonic acid disodium salt)], 2 nM.
In the case of `CC(C)=CCC/C(C)=C/CCC(C)N(C)CCCC(P(=O)(O)O)P(=O)(O)O` (centres unmarked) [Example 18, 4-{(E)-N-Methyl-1,5,9-trimethyl-4,8-decadienylamino}-butyl-1,1-bis(phosphonic acid disodium salt)] it was 3 nM; in that of `CC(C)=CCC/C(C)=C/CCN(C)CCCC(P(=O)(O)O)P(=O)(O)O` [Example 19, 4-{(E)-N-Methyl-4,8-dimethyl-3,7-nonadienylamino}-butyl-1,1-bis(phosphonic acid disodium salt)], 1 nM.
In turn, `C/C(=C\CC/C(C)=C/CC(P(=O)(O)O)P(=O)(O)O)CC/C=C/c1ccccc1` [Example 20, (E,E,E)-4,8-Dimethyl-12-phenyl-3,7,11-dodecatrienyl-1,1-bis(phosphonic acid disodium salt)] yielded an IC50 of 2 nM.
In the case of `C/C(=C\CC(P(=O)(O)O)P(=O)(O)O)CC/C=C(\C)c1ccccc1` [Example 21, (E,E)-4-Methyl-8-phenyl-3,7-nonadienyl-1,1-bis(phosphonic acid disodium salt)] it was 1 nM.
The value for `C/C(=C\CC(P(=O)(O)O)P(=O)(O)O)CC/C=C/c1ccccc1` [Example 22, (E,E)-4-Methyl-8-phenyl-3,7-octadienyl-1,1-bis(phosphonic acid disodium salt)] was 1 nM; that for `C/C(=C\CN(C)CCCC(P(=O)(O)O)P(=O)(O)O)CC/C=C(\C)c1ccccc1` [Example 23, 4-{(E,E)-N-Methyl-3-methyl-7-phenyl-2,6-octadienylamino}-butyl-1,1-bis(phosphonic acid disodium salt)] was 0.5 nM.
The value for `CCOP(=O)(O)C(CC/C=C(\C)CC/C=C(\C)CCC=C(C)C)C(=O)O` (centres unmarked) [Example 29, Disodium salt of ethyl(E,E)-1-carboxy-5,9,13-trimethyl-4,8,12-tetradecatrienylphosphonate] was 7300 nM.
`CCOP(=O)(O)C(C/C=C/C=C(\C)CC/C=C(\C)CCC=C(C)C)C(=O)O` (centres unmarked) [Example 30, Disodium salt of ethyl (E,E,E)-1-carboxy-6,10,14-trimethyl-3,5,9,13-pentadecatetraenylphosphonate] displayed an IC50 of 7100 nM.
In turn, `CCOC(=O)C(C/C=C(\C)CC/C=C(\C)CCC=C(C)C)P(=O)(O)O` (centres unmarked) [Example 31, Disodium (E,E)-1-carboethoxy4,8,12-trimethyl-3,7,11-tridecatrienylphosphonate] displayed an IC50 of 9400 nM.
Turning to `CC(C)=CCC/C(C)=C/CC/C(C)=C/CC(C(=O)O)P(=O)(O)O` (centres unmarked) [Example 32, Trisodium salt of (E,E)-carboxy-4,8,12-trimethyl-3,7,11-tridecatrienylphosphonic acid], the IC50 is 1600 nM.
In turn, `CC(C)=CCC/C(C)=C/CC/C(C)=C/CCC(C(=O)O)P(=O)(O)O` (centres unmarked) [Example 33, Trisodium salt of-(E,E)-1-carboxy-5,9,13-trimethyl-4,8,12-tetradecatrienylphosphonic acid] gave an IC50 of 180 nM.
The value for `CC(C)=CCC/C(C)=C/CC/C(C)=C/C=C/CC(C(=O)O)P(=O)(O)O` (centres unmarked) [Example 34, Trisodium salt of (E,E,E)-1-carboxy-6,10,14-trimethyl-3,5,9,13-pentadecatetraenylphosphonic acid] was 600 nM.
The value for `CC(C)=CCC/C(C)=C/CC/C(C)=C/CN(C)CCCC(C(=O)O)P(=O)(O)O` (centres unmarked) [Example 35, Trisodium salt of 1-carboxy,4-{(E,E)-N-methyl-3,7,11-trimethyl-2,6,10-dodecatrienylamino}burylphosphonic acid] was 20 nM; that for `CC(C)=CCC/C(C)=C/CN(C)CCCC(P(=O)(O)O)P(=O)(O)O` [Example 43, 4-{(E)-N-Methyl-3,7-dimethyl-2,6-octadienylamino}butyl 1,1-bis(phosphonic acid disodium salt)] was 3 nM; that for `CCN(C/C=C(\C)CCC=C(C)C)CCCC(P(=O)(O)O)P(=O)(O)O` [Example 44, 4-{(E)-N-Ethyl-3,7-dimethyl-2,6-octadienylamino}butyl-1,1-bis(phosphoric acid disodium salt)] was 3 nM.
Turning to `CC(C)=CCC/C(C)=C/CNCCCC(P(=O)(O)O)P(=O)(O)O` [Example 45, 4-{(E)-3,7-Dimethyl-2,6-octadienylamino}butyl-1,1-bis(phosphonic acid disodium salt)], the IC50 is 3 nM.
In the case of `CC(C)=CCC/C(C)=C/CCC(C)N(C)CCCCC(P(=O)(O)O)P(=O)(O)O` (centres unmarked) [Example 46, 5-{(E}-N-Methyl-1,5,9-trimethyl-4,8-decadienylamino}-pentyl-1,1-bis(phosphonic acid disodium salt)] it was 2 nM; in that of `CC(C)=CCC/C(C)=C/CC/C(C)=C/CNC(P(=O)(O)O)P(=O)(O)O` [Example 47, {(E,E)-3,7,11-Trimethyl-2,6,10-dodecatrienylamino}-methylbis(phosphonic acid sodium salt)], 2 nM.
Consider `CC(C)=CCC/C(C)=C/CC/C(C)=C/CN(C)C(P(=O)(O)O)P(=O)(O)O` [Example 48, {(E,E)-N-Methyl-3,7,11-trimethyl-2,6,10-dodecatrienylamino}methylbis(phosphonic acid disodium salt)], for which the IC50 came to 1 nM.
The value for `CC(C)=CCC/C(C)=C/CC/C(C)=C/CN(C)CCCCC(P(=O)(O)O)P(=O)(O)O` [Example 49, 5-{(E,E)-N-Methyl-3,7,11-trimethyl-2,6,10-dodecatrienylamino}pentyl-1,1-bis(phosphonic acid disodium salt)] was 2 nM; that for `CC(C)=CCC/C(C)=C/CCC(C)N(C)CCCC(C(=O)O)P(=O)(O)O` (centres unmarked) [Example 51, Trisodium salt of 1-carboxy-4,{(E)-N-methyl-1,5,9-trimethyl-4,8-decadienylamino}butylphosphonic acid] was 14 nM.

The record behind these values is patent US5453524A, “Phosphorus-containing isoprenoid derivatives” (Eisai Co., Ltd., priority 1991, dated 1995).
